From US20220401436A1, “METHODS FOR THE TREATMENT OF CANCERS THAT HAVE ACQUIRED RESISTANCE TO KINASE INHIBITORS” (INSERM (INSTITUTE NATIONAL DE LA SANTÉ ET DE LA RECHERCHE …, priority 2019, published 2022)

Experiments:
[1] = system: EGFR-mutated lung cell lines; assay: Drug-tolerant cell (DTC) state in a panel of EGFR-mutated lung cell lines; format: cell-based
Source text: Actin polymerization is a tightly regulated process orchestrated by GTPases. Given our knowledge on the role of RHOB in resistance to targeted therapy, we assessed whether this GTPase could be responsible for the production of stress fibers in response to EGFR-TKI.

HCC4006 = assay: GFP-transduced HCC4006 cells treated in vitro, response and relapse followed by fluorescence detection; format: cell-based; conditions: for emergence of resistant proliferative clones: inhibitor at 1 μM
PC9 = assay: GFP-transduced PC9 cells treated in vitro, response and relapse followed by fluorescence detection; format: cell-based; conditions: for emergence of resistant proliferative clones: inhibitor at 1 μM
HCC2935 = format: cell-based
H3255 = format: cell-based
[2] = system: H3122 (ALK-translocated NSCLC cell line); assay: GFP-transduced H3122 cells treated in vitro, response and relapse followed by fluorescence detection; format: cell-based
Procedure: (§1) FIG. 1. […] (G-H). GFP-transduced H3122 (ALK-translocated NSCLC cell line) or A375 (BRAF-mutated melanoma cell line) were treated by Tipifarnib 0.1 μM in combination with Alectinib (2 μM) or Vemurafenib (5 μM), respectively, and response as well as relapse was followed by fluorescence detection.

[3] = combination of Erlotinib and Tipifarnib; phase I clinical trial; cited from earlier work
[4] = system: A375 (BRAF-mutated melanoma cell line); assay: GFP-transduced A375 cells treated in vitro, response and relapse followed by fluorescence detection; format: cell-based
Procedure: as §1

TKI-sensitive models = assay: Relapse in several TKI-sensitive models followed by fluorescence detection (FIG. 1); format: cell-based; conditions: in combination with TKI; FIG. 1 title
Procedure: as §1

HCC827 = assay: GFP-transduced HCC827 cells treated in vitro, response and relapse followed by fluorescence detection; format: cell-based; conditions: for emergence of resistant proliferative clones: inhibitor at 1 μM
[5] = erlotinib alone, data not shown
[6] = Tipifarnib alone at 0.1 μM, data not shown
[7] = Tipifarnib alone at 1 μM vs 0.1 μM, data not shown
[8] = combination with erlotinib 1 μM, Tipifarnib at 0.1 μM
[9] = combination with erlotinib 1 μM, Tipifarnib at 1 μM
[10] = combination with erlotinib 1 μM

C=CC(=O)Nc1cc(Nc2nccc(-c3cn(C)c4ccccc34)n2)c(OC)cc1N(C)CCN(C)C [osimertinib]
generation of DTC [1]: able to generate DTC

C#Cc1cccc(Nc2ncnc3cc(OCCOC)c(OCCOC)cc23)c1 [erlotinib]
proliferative resistant clones after erlotinib treatment (HCC4006; [5]): able to generate proliferative resistant clones | generation of DTC [1]: able to generate DTC | proliferative resistant clones after erlotinib treatment (PC9; [5]): able to generate proliferative resistant clones | resistant clones after erlotinib treatment (HCC2935): never observed resistant clones | resistant clones after erlotinib treatment (H3255): never observed resistant clones

Cn1cncc1[C@@](N)(c1ccc(Cl)cc1)c1ccc2c(c1)c(-c1cccc(Cl)c1)cc(=O)n2C [Tipifarnib, (R)-6-[amino(4-chlorophenyl)(1-methyl-1H-imidazol-5-yl)methyl]-4-(3-chlorophenyl)-1-methyl-2(1H)-quinolinone]
effect on cells growth (HCC4006; [6]): some cytostatic effect | cytostatic effect (HCC4006; [7]): exacerbated | elimination of drug tolerant cells (HCC4006; [8]): efficiently eliminated all drug tolerant cells | emergence of resistant clones (HCC4006; [8]): fully prevented the emergence of resistant clones | elimination of drug tolerant cells (HCC4006; [9]): efficiently eliminated all drug tolerant cells | emergence of resistant proliferative clones (HCC4006; [10]): fully prevented the emergence of resistant clones | effect on cells growth ([2]; Tipifarnib alone at 0.1 μM): some cytostatic effect | cytostatic effect [2, 7]: exacerbated | tolerability in patients [3]: well tolerated | cell death / remaining DTC after several days of treatment ([1]; combination of Tipifarnib and Erlotinib (1 μM), cell lines not named, data not shown): complete cell death | effect on cells growth ([4]; Tipifarnib alone at 0.1 μM): some cytostatic effect | cytostatic effect [4, 7]: exacerbated | relapse (TKI-sensitive models): prevent relapse | effect on cells growth (PC9; [6]): little-to-non effect | elimination of drug tolerant cells (PC9; [8]): efficiently eliminated all drug tolerant cells | emergence of resistant clones (PC9; [8]): fully prevented the emergence of resistant clones | elimination of drug tolerant cells (PC9; [9]): efficiently eliminated all drug tolerant cells | emergence of resistant proliferative clones (PC9; [10]): fully prevented the emergence of resistant clones | effect on cells growth (HCC827; [6]): little-to-non effect | elimination of drug tolerant cells (HCC827; [8]): efficiently eliminated all drug tolerant cells | emergence of resistant clones (HCC827; [8]): fully prevented the emergence of resistant clones | elimination of drug tolerant cells (HCC827; [9]): efficiently eliminated all drug tolerant cells | emergence of resistant proliferative clones (HCC827; [10]): fully prevented the emergence of resistant clones

COC(=O)[C@H](CC(C)C)NC(=O)c1ccc(NC[C@@H](N)CS)cc1-c1cccc2ccccc12 [GGTI 298]
emergence of resistant proliferative clones (HCC4006; [10]): didn't prevent the emergence of resistant proliferative clones | relapse (TKI-sensitive models): not GGTi prevent relapse | emergence of resistant proliferative clones (PC9; [10]): didn't prevent the emergence of resistant proliferative clones | emergence of resistant proliferative clones (HCC827; [10]): didn't prevent the emergence of resistant proliferative clones
